Experimental findings from patent EP0058009A1, “Novel benzanilide derivatives and pharmaceutical compositions containing them” (KYOWA HAKKO KOGYO CO., LTD., priority 1981, dated 1982) are described below.

Series [1] has as its system carrageenin-induced paw edema. Description: Effect on carrageenin-induced paw edema (anti-inflammatory effect), method of Winter et al. The class given is in vivo, Wistar strain male rats. As to conditions: Rattus norvegicus, oral, 1 hour before 1% carrageenin, paw volume 3 hours after injection, Wistar male rats, read-out: Anti-inflammatory Effect Inhibition Rate (%). On the procedure: (2) Effect on carrageenin-induced paw edema (Anti-inflammatory Effect)
This test was conducted according to the method by Winter et al.[Winter C.A. et al.: Proc. Soc. Exptl.
As the animals to be tested, groups of 5 - 10 Wistar strain male rats weighing 140 ± 10 g were used, and a 1% carrageenin solution was employed as the phlogistic agent. The compound to be tested was - orally administered to the animals, and an hour later, 0.1 ml of the phlogistic agent was injected subcutaneously to the right hind paw, to induce edema.
The volume of the paw was measured before the injection of the phlogistic agent and 3 hours after the injection, and based on these volume measurements, the edema rate was calculated from the following equation: [formula]
Vn: The volume before the phlogistic agent treatment.
Vt: The volume after the phlogistic agent treatment.
The effect was determined, compared with the control group, the group to which the compound to be tested was not administered and expressed in terms of the inhibition rate of edema. The inhibition rate was calculated from the following equation.
Ec: The average edema rate of the control group.
Et: The average edema rate of the group to which the compound to be tested was administered...
For orientation: In the carrageenan paw model, swelling and tenderness develop within hours.

In a further series the test system is dd strain male mice. Description: Acute toxicity, oral administration, deaths counted over one week. The class given is in vivo. The following applies: Dose: 1500mg/kg, observed for a week.
In another series the test system is acetic acid writhing. Description: Analgesic effect, acetic acid writhing method (Koster et al.). In kind it is in vivo, dd strain male mice. The following applies: Mus musculus, oral, 60 minutes before 0.7% acetic acid i.p., number of writhes, dd male mice, read-out: Analgesic Effect Inhibition Rate (%). On the procedure:
(3) Analgesic Effect (Acetic Acid Writhing Method) This was done according to the method by Koster, et al Federation Proc. 18, 412 (1959)]. The animals to be tested were groups of 10 dd strain male nice weighing 20 ± 1 g. The compound to be tested .was administered orally, and 60 minutes after the administration, 0.2 ml of a 0.7% acetic acid solution ,vas administered intraperitoneally. For a period of 10 minutes from […] minutes after the administration of said acetic acid solution, the number of writhes was measured and the average number was determined. The unhibition rate (%) was calculated from the following equation. [formula] Ec: The average number of writhes in the control group. Et: The average number of writhes in the group to which the compound to be tested was administered.
(In general: In writhing tests, fewer writhes than in controls are read as antinociception.)

Take `COc1ccc(C(=O)Nc2cccc(F)c2)cc1N` [Compound 1, 3-Amino-3'-fluoro-4-methoxy-benzanilide]: the inhibition in vivo at 100 mg/kg in series [1] is 64.3%; with acetic acid writhing, 41.9%. Moreover, in the series on dd strain male mice, the “Acute Toxicity Nos. of Deaths/ Nos. of Tests” value is reported as 0/6.
`COc1ccc(C(=O)Nc2cccc(C(F)(F)F)c2)cc1N` [Compound 2, 3-Amino-3'-trifluoro-methyl-4-benzanilide]: the results for the inhibition in vivo at 100 mg/kg (in series [1]; in the series on acetic acid writhing) were 38.8% and 48.8%, respectively. For the same compound, the “Acute Toxicity Nos. of Deaths/ Nos. of Tests” value in the series with dd strain male mice was 0/6.
On to `COc1ccc(C(=O)Nc2cc(C(F)(F)F)cc(C(F)(F)F)c2)cc1N` [Compound 3, 3-Amino-3',5'-ditrifluoro-methyl-4-methoxy-benzanilide], for which the results for the inhibition in vivo at 100 mg/kg (in series [1]; in the series on acetic acid writhing) were 16.9% and 24.6%, respectively. In the series with dd strain male mice, the “Acute Toxicity Nos. of Deaths/ Nos. of Tests” value is 0/6.
For `COc1ccc(C(=O)Nc2ccc(Cl)cc2C(F)(F)F)cc1N` [Compound 4, 3-Amino-2'-trifluoro-methyl-4'-chloro-4-methoxy-benzanilide], the inhibition in vivo at 100 mg/kg in series [1] was found to be 8.7%; with acetic acid writhing, 34.8%. Further, in the series on dd strain male mice, the “Acute Toxicity Nos. of Deaths/ Nos. of Tests” value is 0/6.
Taken in the same sequence, the figures for `COc1ccc(C(=O)Nc2cc(C(F)(F)F)ccc2Cl)cc1N` [Compound 5, 3-Amino-2'-chloro-5'-tri-fluoromethyl-4-methoxy-benzanilide] were 0%, 52.3% and 0/6.
Take `COc1ccc(C(=O)Nc2ccccc2)cc1N` [Compound 6, 3-Amino-4-methoxy-benzanilide]: the values for the inhibition in vivo at 100 mg/kg (in series [1]; in the series on acetic acid writhing) were 55.9% and 43.4%, respectively. Moreover, the “Acute Toxicity Nos. of Deaths/ Nos. of Tests” value in the series with dd strain male mice was 0/5.
In the case of `COc1ccc(C(=O)Nc2ccc(Cl)cc2Cl)cc1N` [Compound 7, 3-Amino-2',4'-dichloro-4-methoxy-benzanilide], the inhibition in vivo at 100 mg/kg in series [1] was 5.5%; with acetic acid writhing, 40.2%. The “Acute Toxicity Nos. of Deaths/ Nos. of Tests” value with dd strain male mice was 0/6.
With `COc1ccc(C(=O)Nc2c(C)cccc2C)cc1N` [Compound 8, 3-Amino-2',6'-dimethyl-4-methoxy-benzanilide], the inhibition in vivo at 100 mg/kg amounted to 19.5% in series [1] and 45.7% in the series with acetic acid writhing. In addition, in the series on dd strain male mice, the “Acute Toxicity Nos. of Deaths/ Nos. of Tests” value is given as 0/6.
`CC(C)Cc1ccc(C(C)C(=O)O)cc1` (stereo not drawn) [Ibuprofen, α-methyl-4-(2-methylpropyl) benzene acetic acid, reference compound]: the inhibition in vivo at 100 mg/kg in series [1] amounted to 68.4%; in the series with acetic acid writhing it was 16.3%. Moreover, the “Acute Toxicity Nos. of Deaths/ Nos. of Tests” value with dd strain male mice was 2/5.
`COc1cc(C)nc(-n2nc(C)cc2OC)n1` [Mepirizole, 4-methoxy-2-(5-methoxy-3-meLhylpyrazol-1-yl)-6-methylpyrimidine, reference compound]: the inhibition in vivo at 100 mg/kg in series [1] was 29.2%; with acetic acid writhing it was 44.6%. Further, in the series with dd strain male mice, the “Acute Toxicity Nos. of Deaths/ Nos. of Tests” value was 2/2.
